{"source": "ChEMBL document CHEMBL1136590", "about": "“Synthesis, spectral studies and screening for amoebicidal activity of new palladium(II) complexes derived from thiophene-2-carboxaldehyde thiosemicarbazones” (Bioorg Med Chem Lett, 2003)"}
{"tested_on": "Entamoeba histolytica", "assay": "(§1) In vitro amoebicidal activity against HM-1:1MMS strain of Entamoeba histolytica", "assay_type": "functional, organism-based", "settings": "not given", "units": {"IC50": "µM"}}
{"molecule": "thiophene-2-carbaldehyde N-(2-chlorobenzyl)thiosemicarbazone with PdCl2 complex", "IC50": 3.06}
{"molecule": "Di(methylsulfinyl)methane with PdCl2 complex", "IC50": 8.24}
{"molecule": "thiophene-2-carbaldehyde N-(2,4-difluorophenyl)thiosemicarbazone with PdCl2 complex", "IC50": 2.65}
{"molecule": "3,4-Dihydro-2H-quinoline-1-carbothioic acid thiophen-2-ylmethylene-hydrazide with PdCl2 complex", "IC50": 1.15}
{"molecule": "thiophene-2-carbaldehyde N-(2,6-difluorophenyl)thiosemicarbazone with PdCl2 complex", "IC50": 2.41}
{"tested_on": "Entamoeba histolytica", "assay": "as §1", "assay_type": "functional, organism-based", "settings": "Entamoeba histolytica", "units": {"IC50": "µM"}}
{"molecule": "S=C(N/N=C/c1cccs1)N1CCCC1", "IC50": 3.2}
{"molecule": "Cc1ncc([N+](=O)[O-])n1CCO", "note": "[METRONIDAZOLE]", "IC50": 2.03}
{"molecule": "Fc1ccc(/N=C(\\S)N/N=C/c2cccs2)c(F)c1", "IC50": 6.18}
{"molecule": "Fc1cccc(F)c1/N=C(\\S)N/N=C/c1cccs1", "IC50": 5.73}
{"molecule": "S=C(NCc1ccccc1Cl)N/N=C/c1cccs1", "IC50": 5.74}
{"molecule": "S=C(N/N=C/c1cccs1)N1CCCc2ccccc21", "IC50": 2.78}
